The record followed here is patent US9334290B2, “Substituted tetrahydrocarbazole and carbazole carboxamide compounds” (Bristol-Myers Squibb Company, priority 2013, dated 2016).

Assay [1] has as its system CD69 expression on B cells in human whole blood. Description: Whole blood assay of BCR-stimulated CD69 expression on B cells. The format is cell-based. As to conditions: BCR-stimulated, read-out: CD69 IC50 values.
The target of assay [2] is Jak2 tyrosine kinase (Homo sapiens (Human), UniProt O60674). Description: Jak2 tyrosine kinase assay. The format is biochemical.
The target of assay [3] is human recombinant Btk (Homo sapiens (Human), UniProt Q06187). As to the kind of experiment: Human Recombinant Btk enzyme assay. The format is biochemical.

Like-named read-outs stand apart in the source and are kept apart here.

Jak2 tyrosine kinase, sequence (O60674 whole entry): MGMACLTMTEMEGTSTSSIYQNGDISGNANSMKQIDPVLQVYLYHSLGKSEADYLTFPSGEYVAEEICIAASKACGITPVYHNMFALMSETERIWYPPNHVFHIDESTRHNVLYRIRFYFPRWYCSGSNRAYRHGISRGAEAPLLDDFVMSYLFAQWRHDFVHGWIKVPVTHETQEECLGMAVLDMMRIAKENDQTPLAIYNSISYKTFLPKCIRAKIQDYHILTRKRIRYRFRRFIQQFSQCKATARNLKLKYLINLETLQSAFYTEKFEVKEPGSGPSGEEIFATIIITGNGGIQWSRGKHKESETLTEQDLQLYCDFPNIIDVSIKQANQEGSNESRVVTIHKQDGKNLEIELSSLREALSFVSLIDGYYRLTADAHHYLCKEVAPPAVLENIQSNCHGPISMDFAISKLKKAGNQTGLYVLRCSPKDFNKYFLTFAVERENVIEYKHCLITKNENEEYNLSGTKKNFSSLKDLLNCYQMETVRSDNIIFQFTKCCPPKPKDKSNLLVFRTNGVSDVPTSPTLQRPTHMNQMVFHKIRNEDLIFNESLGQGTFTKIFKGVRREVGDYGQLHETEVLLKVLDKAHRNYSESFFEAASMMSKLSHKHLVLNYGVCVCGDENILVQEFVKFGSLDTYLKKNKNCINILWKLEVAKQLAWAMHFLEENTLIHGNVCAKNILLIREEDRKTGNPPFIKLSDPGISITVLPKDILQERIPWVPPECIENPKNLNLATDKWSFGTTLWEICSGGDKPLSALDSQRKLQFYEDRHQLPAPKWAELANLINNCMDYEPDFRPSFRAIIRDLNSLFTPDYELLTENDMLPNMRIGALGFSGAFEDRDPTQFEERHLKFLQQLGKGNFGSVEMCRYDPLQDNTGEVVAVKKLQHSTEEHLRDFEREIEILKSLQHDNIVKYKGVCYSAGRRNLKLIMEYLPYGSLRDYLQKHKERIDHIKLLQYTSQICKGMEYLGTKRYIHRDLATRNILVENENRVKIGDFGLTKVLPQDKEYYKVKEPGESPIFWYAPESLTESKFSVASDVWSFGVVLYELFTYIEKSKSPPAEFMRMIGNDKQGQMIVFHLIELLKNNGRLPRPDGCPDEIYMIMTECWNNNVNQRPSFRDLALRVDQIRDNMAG
human recombinant Btk, sequence (Q06187 whole entry): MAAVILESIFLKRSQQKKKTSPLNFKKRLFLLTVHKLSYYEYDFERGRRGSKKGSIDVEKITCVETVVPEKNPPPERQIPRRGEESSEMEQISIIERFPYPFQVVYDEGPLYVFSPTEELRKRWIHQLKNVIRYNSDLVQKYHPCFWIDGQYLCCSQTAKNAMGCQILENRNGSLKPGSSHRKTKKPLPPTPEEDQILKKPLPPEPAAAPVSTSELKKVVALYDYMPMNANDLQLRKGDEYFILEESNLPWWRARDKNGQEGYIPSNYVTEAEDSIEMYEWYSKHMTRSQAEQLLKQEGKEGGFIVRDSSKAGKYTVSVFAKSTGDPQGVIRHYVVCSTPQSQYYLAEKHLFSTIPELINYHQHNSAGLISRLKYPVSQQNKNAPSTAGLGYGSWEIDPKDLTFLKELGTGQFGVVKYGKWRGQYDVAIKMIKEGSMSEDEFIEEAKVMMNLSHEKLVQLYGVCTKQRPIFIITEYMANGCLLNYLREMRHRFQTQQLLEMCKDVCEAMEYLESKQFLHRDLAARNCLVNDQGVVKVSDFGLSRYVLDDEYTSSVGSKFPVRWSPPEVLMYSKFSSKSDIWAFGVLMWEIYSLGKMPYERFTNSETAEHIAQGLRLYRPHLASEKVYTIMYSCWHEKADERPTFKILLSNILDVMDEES

With `Cc1c(-c2c(Cl)cc(C(N)=O)c3[nH]c4cc(C(C)(C)O)ccc4c23)cccc1-n1c(=O)c2cccc(F)c2n(C)c1=O` (atropisomer, axis not shown) [Example 11, 3-Chloro-4-(R)-(3-(S)-(8-fluoro-1-methyl(d3)-2,4-dioxo-1,2-dihydroquinazolin-3(4H)-yl)-2-methylphenyl)-7-(2-hydroxypropan-2-yl)-9H-carbazole-1-carboxamide], the figures for the IC50 in assay [1] and in assay [2] were 65 nM and 910 nM, respectively.
For `Cc1c(-c2c(Cl)cc(C(N)=O)c3[nH]c4c(c23)CC[C@H](C(C)(C)O)C4)cccc1-n1c(=O)c2cccc(F)c2n(C)c1=O` (atropisomer, axis not shown) [Example 26, 6-Chloro-5-(R)-(3-(S)-(8-fluoro-1-methyl-2,4-dioxo-1,2-dihydroquinazolin-3(4H)-yl)-2-methylphenyl)-2-(S)-(2-hydroxypropan-2-yl)-2,3,4,9-tetrahydro-1H-carbazole-8-carboxamide], in that order: 160 nM and 7500 nM.
`Cc1c(-c2c(F)cc(C(N)=O)c3[nH]c4c(c23)CC[C@@H](C(C)(C)O)C4)cccc1-n1c(=O)c2cccc(F)c2n(C)c1=O` (atropisomer, axis not shown) [Example 27, 6-Fluoro-5-(R)-(3-(S)-(8-fluoro-1-methyl-2,4-dioxo-1,2-dihydroquinazolin-3(4H)-yl)-2-methylphenyl)-2-(R)-(2-hydroxypropan-2-yl)-2,3,4,9-tetrahydro-1H-carbazole-8-carboxamide]: the results for the IC50 in assay [3] (read-out: Btk IC50 value), in assay [1] and in assay [2] were 2.2 nM, 150 nM and more than 2000 nM, respectively.
In the case of `Cc1c(-c2c(F)cc(C(N)=O)c3[nH]c4c(c23)CC[C@H](C(C)(C)O)C4)cccc1-n1c(=O)c2cccc(F)c2n(C)c1=O` (atropisomer, axis not shown) [Example 28, 6-Fluoro-5-(R)-(3-(S)-(8-fluoro-1-methyl-2,4-dioxo-1,2-dihydroquinazolin-3(4H)-yl)-2-methylphenyl)-2-(S)-(2-hydroxypropan-2-yl)-2,3,4,9-tetrahydro-1H-carbazole-8-carboxamide], the IC50 in assay [3] (read-out: Btk IC50 value) amounted to 0.54 nM; in assay [2], 32000 nM. Besides, the “Ratio of Jak2/Btk IC50 values” in assay [2] (selectivity of Btk over Jak2) is reported as 59000.
With `COc1ccc2c(=O)n(-c3cccc(-c4c(Cl)cc(C(N)=O)c5[nH]c6cc(C(C)(C)O)ccc6c45)c3C)c(=O)n(C)c2c1` (single isomer, unassigned) [Example 5], the IC50 in assay [3] (read-out: Btk IC50 value) is 2.1 nM; in assay [1] (Homo sapiens, B-cell), 170 nM; in assay [2] it was more than 2000 nM. Also, the “Ratio of Jak2/Btk IC50 values” in assay [2] (selectivity of Btk over Jak2) was more than 950.
On to `COc1ccc2c(=O)n(-c3cccc(-c4c(Cl)cc(C(N)=O)c5[nH]c6cc(C(C)(C)O)ccc6c45)c3C)c(=O)n(C)c2c1` (single isomer, unassigned) [Example 6], for which the values for the IC50 in assay [3] (read-out: Btk IC50 value), in assay [1] and in assay [2] were 1.1 nM, 100 nM and 1500 nM, respectively. Further, in assay [2] (selectivity of Btk over Jak2), the “Ratio of Jak2/Btk IC50 values” was 1400.
Regarding `[2H]C([2H])([2H])n1c(=O)n(-c2cccc(-c3c(Cl)cc(C(N)=O)c4[nH]c5cc(C(C)(C)O)ccc5c34)c2C)c(=O)c2cccc(F)c21` (single isomer, unassigned) [Example 12], the IC50 in assay [1] (Homo sapiens, B-cell) is 190 nM; in assay [2], 1900 nM.
With `Cc1c(-c2c(Cl)cc(C(N)=O)c3[nH]c4cc(C(C)(C)O)ccc4c23)cccc1-n1c(=O)[nH]c2c(F)cccc2c1=O` (single isomer, unassigned) [Example 14], the IC50 in assay [3] (read-out: Btk IC50 value) was 1.2 nM; in assay [1] (Homo sapiens, B-cell), 20 nM.
As for `Cc1c(-c2c(C#N)cc(C(N)=O)c3[nH]c4cc(C(C)(C)O)ccc4c23)cccc1-n1c(=O)c2cccc(F)c2n(C)c1=O` (single isomer, unassigned) [Example 15], the IC50 in assay [3] (read-out: Btk IC50 value) came to 1 nM; in assay [1] (Homo sapiens, B-cell), 170 nM; in assay [2] it was 2400 nM. For the same molecule, the “Ratio of Jak2/Btk IC50 values” in assay [2] (selectivity of Btk over Jak2) is listed as 2400.
Consider `Cc1c(-c2c(C#N)cc(C(N)=O)c3[nH]c4cc(C(C)(C)O)ccc4c23)cccc1-n1c(=O)c2cccc(F)c2n(C)c1=O` (single isomer, unassigned) [Example 16], for which the IC50 in assay [3] (read-out: Btk IC50 value) came to 0.27 nM; in assay [1], 120 nM; in assay [2] it was 1900 nM.
As to `Cc1c(-c2c(F)cc(C(N)=O)c3[nH]c4cc(C(C)(C)O)ccc4c23)cccc1-n1c(=O)cc2c(Cl)cccn2c1=O` (single isomer, unassigned) [Example 30], the IC50 in assay [3] (read-out: Btk IC50 value) is 0.22 nM; in assay [1] (Homo sapiens, B-cell), 64 nM.
Take `Cc1c(-c2c(F)cc(C(N)=O)c3[nH]c4cc(C(C)(C)O)ccc4c23)cccc1-n1c(=O)cc2c(Cl)cccn2c1=O` (single isomer, unassigned) [Example 31]: the figures for the IC50 in assay [3] (read-out: Btk IC50 value) and in assay [1] were 0.19 nM and 37 nM, respectively.
With `Cc1c(-c2c(Cl)cc(C(N)=O)c3[nH]c4cc(C(C)(C)O)ccc4c23)cccc1-n1c(=O)cc2c(F)cccn2c1=O` (single isomer, unassigned) [Example 35], the IC50 in assay [3] (read-out: Btk IC50 value) was found to be 0.25 nM; in assay [1] (Homo sapiens, B-cell), 31 nM; in assay [2], 800 nM. Besides, the “Ratio of Jak2/Btk IC50 values” in assay [2] (selectivity of Btk over Jak2) turned out to be 3200.
With `Cc1c(-c2c(Cl)cc(C(N)=O)c3[nH]c4cc(C(C)(C)O)ccc4c23)cccc1-n1c(=O)cc2c(F)cccn2c1=O` (single isomer, unassigned) [Example 36], the half-maximal inhibitory concentration (IC50) in assay [3] (read-out: Btk IC50 value) was 0.28 nM; in assay [1], 28 nM; in assay [2], 450 nM. For the same molecule, the “Ratio of Jak2/Btk IC50 values” in assay [2] (selectivity of Btk over Jak2) is 1600.
As to `Cc1c(-c2c(Cl)cc(C(N)=O)c3[nH]c4c(c23)CC[C@H](C(C)(C)O)C4)cccc1-n1c(=O)[nH]c2c(F)cccc2c1=O` (single isomer, unassigned) [Example 55], the IC50 in assay [1] came out at 44 nM; in assay [2] it was 9000 nM.
In the case of `Cc1c(-c2c(Cl)cc(C(N)=O)c3[nH]c4c(c23)CC[C@H](C(C)(C)O)C4)cccc1-n1c(=O)[nH]c2c(F)cccc2c1=O` (single isomer, unassigned) [Example 56], the values for the IC50 in assay [1] and in assay [2] were 140 nM and more than 2000 nM, respectively.
On to `Cc1c(-c2c(Cl)cc(C(N)=O)c3[nH]c4c(c23)CC[C@H](C(C)(C)O)C4)cccc1-n1c(=O)[nH]c2c(F)cc(F)cc2c1=O` (single isomer, unassigned) [Example 57], for which the IC50 in assay [3] (read-out: Btk IC50 value) was found to be 0.25 nM; in assay [2], 270 nM. The “Ratio of Jak2/Btk IC50 values” in assay [2] (selectivity of Btk over Jak2) is given as 1100.
As for `Cc1c(-c2c(F)cc(C(N)=O)c3[nH]c4c(c23)CC[C@H](C(C)(C)O)C4)cccc1-n1c(=O)[nH]c2c(F)cccc2c1=O` (single isomer, unassigned) [Example 59], the IC50 in assay [3] (read-out: Btk IC50 value) was 0.9 nM.
Consider `[2H]C([2H])([2H])n1c(=O)n(-c2cccc(-c3c(F)cc(C(N)=O)c4[nH]c5c(c34)CC[C@H](C(C)(C)O)C5)c2C)c(=O)c2cccc(F)c21` (single isomer, unassigned) [Example 62], for which the figures for the IC50 in assay [3] (read-out: Btk IC50 value) and in assay [2] were 0.41 nM and more than 2000 nM, respectively. For the same molecule, the “Ratio of Jak2/Btk IC50 values” in assay [2] (selectivity of Btk over Jak2) was more than 4900.
For `Cc1c(-c2c(F)cc(C(N)=O)c3[nH]c4c(c23)CC[C@H](C(C)(C)O)C4)cccc1-n1c(=O)[nH]c2c(Cl)cccc2c1=O` (single isomer, unassigned) [Example 63], in that order: 0.45 nM, 11000 nM and 24000.
For `Cc1c(-c2c(F)cc(C(N)=O)c3[nH]c4c(c23)CC[C@H](C(C)(C)O)C4)cccc1-n1c(=O)cc2c(Cl)cccn2c1=O` (single isomer, unassigned) [Example 65], the IC50 in assay [1] is 110 nM; in assay [2], more than 2000 nM.
Regarding `Cc1c(-c2c(F)cc(C(N)=O)c3[nH]c4c(c23)CC[C@@H](C(C)(C)O)C4)cccc1-n1c(=O)[nH]c2c(F)cccc2c1=O` (single isomer, unassigned) [Example 67], the IC50 in assay [3] (read-out: Btk IC50 value) was determined as 0.49 nM.
For `Cc1c(-c2c(F)cc(C(N)=O)c3[nH]c4c(c23)CC[C@H](C(C)(C)O)C4)cccc1-n1c(=O)cc2c(F)cccn2c1=O` (single isomer, unassigned) [Example 68], the IC50 in assay [3] (read-out: Btk IC50 value) was found to be 0.56 nM; in assay [2] it was 350 nM. In addition, the “Ratio of Jak2/Btk IC50 values” in assay [2] (selectivity of Btk over Jak2) is recorded as 630.
For the molecule `Cc1nc(C(N)=O)c2[nH]c3cc(C(C)(C)O)ccc3c2c1-c1cccc(-n2cnc3ccccc3c2=O)c1C` [Comparative Example 76, 7-(2-Hydroxypropan-2-yl)-3-methyl-4-(2-methyl-3-(4-oxoquinazolin-3(4H)-yl)phenyl)-9H-pyrido[3,4-b]indole-1-carboxamide, reference compound], the IC50 in assay [3] (human recombinant Btk 1 nM, ATP 20 μM, read-out: Btk IC50) was determined as 6.9 nM; in assay [3] (read-out: Btk IC50 value) it was 6.9 nM; in assay [2], 200 nM. Further, the “Ratio of Jak2/Btk IC50 values” in assay [2] (Jak2 IC50 divided by Btk IC50, larger value = more selective for Btk) is given as 29; in assay [2] (selectivity of Btk over Jak2), 29.
Consider `Cc1c(-c2c(Cl)cc(C(N)=O)c3[nH]c4cc(C(C)(C)O)ccc4c23)cccc1-n1c(=O)[nH]c2c(F)cccc2c1=O` [Example 13, 3-Chloro-4-(3-(8-fluoro-2,4-dioxo-1,2-dihydroquinazolin-3(4H)-yl)-2-methylphenyl)-7-(2-hydroxypropan-2-yl)-9H-carbazole-1-carboxamide], for which the IC50 was determined as 2.9 nM in assay [3] (read-out: Btk IC50 value) and 140 nM in assay [1] (Homo sapiens, B-cell).
As to `COc1cccn2c(=O)n(-c3cccc(-c4c(Cl)cc(C(N)=O)c5[nH]c6cc(C(C)(C)O)ccc6c45)c3C)c(=O)cc12` [Example 37, 3-Chloro-7-(2-hydroxypropan-2-yl)-4-(3-(5-methoxy-1,3-dioxo-1H-pyrido[1,2-c]pyrimidin-2(3H)-yl)-2-methylphenyl)-9H-carbazole-1-carboxamide], the IC50 was 0.91 nM in assay [3] (read-out: Btk IC50 value) and 630 nM in assay [2]. In assay [2] (selectivity of Btk over Jak2), the “Ratio of Jak2/Btk IC50 values” was determined as 690.
Turning to `Cn1c(=O)n(-c2cccc(-c3c(F)cc(C(N)=O)c4[nH]c5cc(C(C)(C)O)ccc5c34)c2Cl)c(=O)c2cccc(F)c21` [Example 61], the IC50 in assay [1] was 93 nM.
`Cc1c(-c2c(F)cc(C(N)=O)c3[nH]c4cc(CCO)ccc4c23)cccc1-n1c(=O)cc2c(F)cccn2c1=O` [Example 70]: the values for the IC50 in assay [3] (read-out: Btk IC50 value) and in assay [2] were 0.59 nM and 550 nM, respectively. Besides, the “Ratio of Jak2/Btk IC50 values” in assay [2] (selectivity of Btk over Jak2) was 930.

Broadly, the IC50 is the concentration that gives 50% inhibition.
